IC50 data for one compound are collected here from paper PMC8069897, “A Targeted-Covalent Inhibitor of 17β-HSD1 Blocks Two Estrogen-Biosynthesis Pathways: In Vitro (Metabolism) and In Vivo (Xenograft) Studies in T-47D Breast Cancer Models” (Cancers, 2021).

The test has as its target T1, 17β-hydroxysteroid dehydrogenase type 1 (17β-HSD1) (Homo sapiens, UniProt P14061).
T1 construct: gene HSD17B1
T1 sequence (P14061 2-328): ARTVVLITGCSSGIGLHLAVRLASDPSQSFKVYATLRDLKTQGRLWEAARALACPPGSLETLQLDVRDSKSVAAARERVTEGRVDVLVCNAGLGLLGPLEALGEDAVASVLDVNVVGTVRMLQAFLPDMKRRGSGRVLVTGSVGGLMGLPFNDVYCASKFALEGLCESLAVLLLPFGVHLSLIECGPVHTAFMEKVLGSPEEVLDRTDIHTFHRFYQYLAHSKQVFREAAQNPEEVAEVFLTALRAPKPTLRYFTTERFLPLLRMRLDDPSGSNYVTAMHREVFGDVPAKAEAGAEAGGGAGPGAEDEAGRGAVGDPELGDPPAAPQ
The test is described as follows: inhibition of […]-DHEA to […]-5-diol conversion in intact T-47D cells (endogenous […]β-HSD1), TLC. The class given is cell-based.

Regarding `C[C@]12CC[C@@H]3c4ccc(CCBr)cc4CC[C@H]3[C@@H]1C[C@H](Cc1cccc(C(N)=O)c1)[C@@H]2O` [PBRM], the IC50 amounted to 0.77 µM.

As usually defined, the IC50 is the concentration at which inhibition is half-maximal. Low values mean higher potency, high ones lower potency.
